pIC50: −log10 of the molar value. Converted amounts (≈) assume the structure as drawn.
Experiments:
Enterococcus faecium = assay: Antimicrobial activity against VanA expressing vancomycin-resistant Enterococcus faecium by micro broth dilution or agar based method; type: functional; conditions: Enterococcus faecium; read-out: MIC
Staphylococcus aureus [1] = assay: Antimicrobial activity against Staphylococcus aureus Smith by micro broth dilution or agar based method; type: functional; conditions: Staphylococcus aureus, Smith; read-out: MIC
Staphylococcus aureus [2] = assay: Antimicrobial activity against methicillin-resistant Staphylococcus aureus OIT971 by micro broth dilution or agar based method; type: functional
Escherichia coli = assay: Antimicrobial activity against Escherichia coli ATCC 25922 by micro broth dilution or agar based method; type: functional; conditions: Escherichia coli, ATCC 25922; read-out: MIC
Streptococcus pneumoniae = assay: Antimicrobial activity against Streptococcus pneumoniae IID553 by micro broth dilution or agar based method; type: functional; conditions: Streptococcus pneumoniae, IID553; read-out: MIC
Acinetobacter baumannii = assay: Antimicrobial activity against Acinetobacter baumannii IID876 by micro broth dilution or agar based method; type: functional; conditions: Acinetobacter baumannii, IID876; read-out: MIC
Pseudomonas aeruginosa = assay: Antimicrobial activity against Pseudomonas aeruginosa PAO1 by micro broth dilution or agar based method; type: functional; conditions: Pseudomonas aeruginosa, PAO1; read-out: MIC
[3] = Oral bioavailability in C57BL/6 mouse at 10 mg/kg; type: ADME, organism-based; conditions: in vivo
Staphylococcus aureus [4] = assay: Potency index, ratio of MIC for quinolone-resistant Staphylococcus aureus MS5935 to MIC for quinolone-[…]; type: functional
[5] = biological target: Voltage-gated inwardly rectifying potassium channel KCNH2 (Homo sapiens, UniProt Q12809); assay: Inhibition of MK499 binding to human ERG
Chain of Voltage-gated inwardly rectifying potassium channel KCNH2 (Q12809 whole entry): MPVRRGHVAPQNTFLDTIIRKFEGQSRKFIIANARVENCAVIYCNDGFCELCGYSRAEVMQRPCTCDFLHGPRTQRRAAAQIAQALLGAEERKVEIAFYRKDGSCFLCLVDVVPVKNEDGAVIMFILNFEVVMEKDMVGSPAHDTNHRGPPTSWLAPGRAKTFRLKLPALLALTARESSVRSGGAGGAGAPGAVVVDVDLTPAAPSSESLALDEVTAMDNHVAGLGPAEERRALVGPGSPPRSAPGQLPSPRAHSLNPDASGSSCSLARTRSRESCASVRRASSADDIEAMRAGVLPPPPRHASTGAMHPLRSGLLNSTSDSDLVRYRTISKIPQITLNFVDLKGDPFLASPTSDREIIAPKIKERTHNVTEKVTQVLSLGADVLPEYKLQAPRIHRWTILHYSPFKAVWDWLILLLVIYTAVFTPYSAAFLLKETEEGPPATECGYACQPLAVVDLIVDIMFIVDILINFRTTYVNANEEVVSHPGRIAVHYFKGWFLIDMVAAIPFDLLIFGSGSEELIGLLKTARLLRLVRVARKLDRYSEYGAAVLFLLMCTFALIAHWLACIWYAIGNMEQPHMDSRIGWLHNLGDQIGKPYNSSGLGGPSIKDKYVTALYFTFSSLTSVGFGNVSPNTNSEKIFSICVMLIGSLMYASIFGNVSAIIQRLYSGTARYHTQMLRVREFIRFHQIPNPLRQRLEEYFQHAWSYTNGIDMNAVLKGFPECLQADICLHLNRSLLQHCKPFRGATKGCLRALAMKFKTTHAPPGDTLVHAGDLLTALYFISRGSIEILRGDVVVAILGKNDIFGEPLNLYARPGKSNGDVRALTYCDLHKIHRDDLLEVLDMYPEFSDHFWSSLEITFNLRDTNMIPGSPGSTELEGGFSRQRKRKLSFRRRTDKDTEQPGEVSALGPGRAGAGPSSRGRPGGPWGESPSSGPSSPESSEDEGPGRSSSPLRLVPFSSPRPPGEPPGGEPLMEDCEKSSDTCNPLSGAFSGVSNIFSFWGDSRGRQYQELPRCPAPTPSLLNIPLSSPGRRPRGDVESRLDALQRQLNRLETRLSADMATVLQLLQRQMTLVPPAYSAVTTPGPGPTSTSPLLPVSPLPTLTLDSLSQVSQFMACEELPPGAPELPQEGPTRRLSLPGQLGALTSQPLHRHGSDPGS

Compound	MIC (Enterococcus faecium) [µg/mL]	MIC (Staphylococcus aureus [1]) [µg/mL]	MIC (Staphylococcus aureus [2]) [µg/mL]	MIC (Escherichia coli) [µg/mL]	MIC (Streptococcus pneumoniae) [µg/mL]	MIC (Acinetobacter baumannii) [µg/mL]	MIC (Pseudomonas aeruginosa) [µg/mL]	bioavailability [3] [%]	Ratio (Staphylococcus aureus [4])	pIC50 [5]
COc1ccc2ncc(F)c(CCC34CCC(NCc5ccc6c(n5)NC(=O)CO6)(CC3)CO4)c2n1	0.5 (≈ 1.01 µM)	0.016 (≈ 0.0324 µM)	0.008 (≈ 0.0162 µM)	1 (≈ 2.03 µM)	0.125 (≈ 0.253 µM)	0.5 (≈ 1.01 µM)	4 (≈ 8.1 µM)	71	–	–
COc1ccc2ncc(F)c(C[C@H](O)C34CCC(NCc5ccc6c(n5)NC(=O)CO6)(CC3)CO4)c2n1	0.5 (≈ 0.981 µM)	0.02 (≈ 0.0393 µM)	0.06 (≈ 0.118 µM)	2 (≈ 3.93 µM)	0.05 (≈ 0.0981 µM)	0.5 (≈ 0.981 µM)	8 (≈ 15.7 µM)	–	–	–
COc1cc2ncc(F)c(CCC34CCC(NCc5ccc6c(n5)NC(=O)CO6)(CC3)CO4)c2nc1OC	8 (≈ 15.3 µM)	0.5 (≈ 0.955 µM)	0.25 (≈ 0.477 µM)	8 (≈ 15.3 µM)	8 (≈ 15.3 µM)	8 (≈ 15.3 µM)	8 (≈ 15.3 µM)	–	–	–
COc1ccc2ncc(Cl)c(CCC34CCC(NCc5ccc6c(n5)NC(=O)CO6)(CC3)CO4)c2n1	1 (≈ 1.96 µM)	0.008 (≈ 0.0157 µM)	0.008 (≈ 0.0157 µM)	2 (≈ 3.92 µM)	0.25 (≈ 0.49 µM)	1 (≈ 1.96 µM)	8 (≈ 15.7 µM)	–	–	–
COc1ccc2ncc(C#N)c(CCC34CCC(NCc5ccc6c(n5)NC(=O)CO6)(CC3)CO4)c2n1	0.5 (≈ 0.999 µM)	0.016 (≈ 0.032 µM)	0.008 (≈ 0.016 µM)	2 (≈ 4 µM)	0.125 (≈ 0.25 µM)	1 (≈ 2 µM)	4 (≈ 7.99 µM)	–	–	–
COc1ccc2ncc(OC)c(CCC34CCC(NCc5ccc6c(n5)NC(=O)CO6)(CC3)CO4)c2n1	4 (≈ 7.91 µM)	0.125 (≈ 0.247 µM)	0.063 (≈ 0.125 µM)	16 (≈ 31.6 µM)	4 (≈ 7.91 µM)	8 (≈ 15.8 µM)	64 (≈ 127 µM)	–	–	–
COc1ccc2ncc(O)c(CCC34CCC(NCc5ccc6c(n5)NC(=O)CO6)(CC3)CO4)c2n1	2 (≈ 4.07 µM)	0.031 (≈ 0.0631 µM)	0.031 (≈ 0.0631 µM)	4 (≈ 8.14 µM)	0.5 (≈ 1.02 µM)	2 (≈ 4.07 µM)	16 (≈ 32.6 µM)	–	–	–
O=C1COc2ccc(CNC34CCC(CCc5c(F)cnc6ccc(O)nc56)(CC3)OC4)nc2N1	8 (≈ 16.7 µM)	0.5 (≈ 1.04 µM)	0.25 (≈ 0.521 µM)	4 (≈ 8.34 µM)	4 (≈ 8.34 µM)	2 (≈ 4.17 µM)	32 (≈ 66.7 µM)	–	–	–
O=C1COc2ccc(CNC34CCC(CCc5c(F)cnc6cccnc56)(CC3)OC4)nc2N1	4 (≈ 8.63 µM)	0.5 (≈ 1.08 µM)	0.25 (≈ 0.539 µM)	4 (≈ 8.63 µM)	4 (≈ 8.63 µM)	1 (≈ 2.16 µM)	16 (≈ 34.5 µM)	–	–	–
Cc1ccc2ncc(F)c(CCC34CCC(NCc5ccc6c(n5)NC(=O)CO6)(CC3)CO4)c2n1	4 (≈ 8.38 µM)	0.25 (≈ 0.524 µM)	0.125 (≈ 0.262 µM)	8 (≈ 16.8 µM)	2 (≈ 4.19 µM)	2 (≈ 4.19 µM)	16 (≈ 33.5 µM)	–	–	–
COC(=O)c1ccc2ncc(F)c(CCC34CCC(NCc5ccc6c(n5)NC(=O)CO6)(CC3)CO4)c2n1	16 (≈ 30.7 µM)	0.063 (≈ 0.121 µM)	0.063 (≈ 0.121 µM)	8 (≈ 15.3 µM)	16 (≈ 30.7 µM)	2 (≈ 3.83 µM)	16 (≈ 30.7 µM)	–	–	–
O=C1COc2ccc(CNC34CCC(CCc5c(F)cnc6ccc(C(=O)O)nc56)(CC3)OC4)nc2N1	16 (≈ 31.5 µM)	16 (≈ 31.5 µM)	16 (≈ 31.5 µM)	16 (≈ 31.5 µM)	16 (≈ 31.5 µM)	16 (≈ 31.5 µM)	16 (≈ 31.5 µM)	–	–	–
N#Cc1ccc2ncc(F)c(CCC34CCC(NCc5ccc6c(n5)NC(=O)CO6)(CC3)CO4)c2n1	2 (≈ 4.09 µM)	0.063 (≈ 0.129 µM)	0.063 (≈ 0.129 µM)	2 (≈ 4.09 µM)	1 (≈ 2.05 µM)	1 (≈ 2.05 µM)	8 (≈ 16.4 µM)	–	–	–
Nc1ccc2ncc(F)c(CCC34CCC(NCc5ccc6c(n5)NC(=O)CO6)(CC3)CO4)c2n1	8 (≈ 16.7 µM)	2 (≈ 4.18 µM)	1 (≈ 2.09 µM)	8 (≈ 16.7 µM)	16 (≈ 33.4 µM)	2 (≈ 4.18 µM)	16 (≈ 33.4 µM)	–	–	–
CN(C)c1ccc2ncc(F)c(CCC34CCC(NCc5ccc6c(n5)NC(=O)CO6)(CC3)CO4)c2n1	4 (≈ 7.9 µM)	0.25 (≈ 0.494 µM)	0.25 (≈ 0.494 µM)	8 (≈ 15.8 µM)	2 (≈ 3.95 µM)	8 (≈ 15.8 µM)	8 (≈ 15.8 µM)	–	–	–
O=C1COc2ccc(CNC34CCC(CCc5c(F)cnc6ccc(N7CCOCC7)nc56)(CC3)OC4)nc2N1	8 (≈ 14.6 µM)	0.5 (≈ 0.911 µM)	0.25 (≈ 0.456 µM)	16 (≈ 29.2 µM)	4 (≈ 7.29 µM)	16 (≈ 29.2 µM)	16 (≈ 29.2 µM)	–	<4	4.94
O=C1COc2ccc(CNC34CCC(CCc5c(F)cnc6ccc(N7CCS(=O)(=O)CC7)nc56)(CC3)OC4)nc2N1	16 (≈ 26.8 µM)	1 (≈ 1.68 µM)	1 (≈ 1.68 µM)	16 (≈ 26.8 µM)	4 (≈ 6.7 µM)	16 (≈ 26.8 µM)	16 (≈ 26.8 µM)	–	<4	–
